Results: ChEMBL document CHEMBL1149717, “Three New Eudesmane Sesquiterpenes from Pluchea arguta” (J Nat Prod, 1992)
Calls of active or inactive are those of the source.

Key:
Type in all cases: functional, organism-based
[1] = system: Lactococcus lactis; test: Antibacterial activity against Streptococcus lactis
[2] = system: Klebsiella pneumoniae; test: Antibacterial activity against Klebsiella ozaenae; details: subsp. ozaenae
[3] = system: Proteus vulgaris; test: Antibacterial activity against Proteus vulgaris

Measured: Activity

CC(=O)O[C@]1(C)[C@@H]2C=C(C(C)(C)O)C(=O)C[C@@]2(C)CC[C@H]1OC(=O)C(C)(O)C(C)Cl (stereo partly drawn)
active: all assays above
